“Also recorded” adds a separate entry of the source.
Assays:
[1] = tested on: MnPO^GLP1r neurons; test: Drinking assays with chemogenetic inhibition of MnPO^GLP1r neurons by CNO; type: in vivo, mice; details: hM4Di in MnPO^GLP1r
Protocol: For water-restriction experiments, animals were provided with 1 mL of water daily. For food restriction experiments, animals were provided 0.5 pellets/20 g body weight daily. All assays were performed in a modified lickometer as described previously^[35] or Biodaq monitoring system (Research Diets Inc). For all photometry assays, animals were acclimatized for 10-15 min in the lickometer cage before stimuli were given.
Long-term access assays: Optogenetic Testing—For FIGS. 1L-N and FIGS. 7L-O, satiated mice were given ad libitum access to water for 20 min with photostimulation. Photostimulation was delivered for 1-s followed by 3-s intervals throughout the behavioral sessions. For FIGS. 2J-M and FIGS. 11C-E, mice were given access to water for 20 min after 24 h water-restriction, and photostimulation was delivered for the first 10 min. For feeding assays (FIGS. 2J-M), animals were single-housed in Biodaq cages after 24 h food-restriction, and chow intake was measured for 20 min with or without light stimulation. For acute inhibition experiments, mice were given access to 150 mM NaCl (FIGS. 5D-E, FIGS. 13E-F), water (FIGS. 1L-N, FIGS. 7L-O, FIGS. 13A-D, FIGS. 13G-H) for 20-30 min after 24 h water-restriction or 300 mM sucrose (FIGS. 1L-N, FIGS. 7L-O) after food-restriction. For all acute inhibition experiments, CNO was injected at 10 mg/kg body weight, 30 min prior to the start of the behavior session. For acute activation experiments, CNO was injected at 1 mg/kg body weight (FIGS. 12L-M), 30 min prior to the start of the behavior session. For FIG. 3A, FIGS. 9A-C, and FIG. 13L, water or saline access was provided for 30 min after 24 hours of water restriction. For FIGS. 4A-B, water or HydroGel (ClearH2O) in a cup was provided for 30 min after 24 and 36 hours of water restriction, respectively. The weight of the cup was measured before and after the behavior session. For FIGS. 4K-L, 0.5 pellets of chow was provided for 30 min after 24 h food-restriction. The entire session was recorded using a camera at 30 fps and ingestion episodes were manually annotated.

[2] = tested on: hM4Di-expressing MnPO^GLP1r neurons; test: Slice current-clamp recording, CNO on hM4Di-expressing MnPO^GLP1r neurons; type: cell-based, mice; details: CNO application
Source text: Procedures for preparation of acute brain slices and recordings with optogenetic stimulations were similar to those described previously^[10],[36]. After decapitation, the brain was removed and immersed in ice-cold solution. Coronal slices ([…]) were cut using a vibratome (VT-1200s, Leica) and moved into HEPES-holding solution (NaCl 92, KCl 2.5, NaH2PO4 1.2, NaHCO3 30, HEPES 20, glucose 25, Na-ascorbate 5, Thiourea 2, Na14 pyruvate 3, MgSO4 2, CaCl2 2, pH 7.35). The slices were allowed to recover at 33° C. for 30 min and then held at room temperature ([…]) until use.
While recording, slices were perfused continuously (˜2 mL/min) with artificial cerebrospinal fluid (ACSF-NaCl 124, KCl2.5, NaH2PO4 1.2, NaHCO3 24, glucose 25, MgSO4 1, CaCl2 2) at 25° C. Neurons were visualized and targeted using an upright IR19 DIC microscope (BX51WI, Olympus). […] In order to confirm the PSCs recorded were GABAergic, picrotoxin (150 μM) was applied through the bath in part of the experiments. […] CNO (˜6 μM) was applied by a puff (30 s) from another glass pipette placed ˜50 μm from the recorded cell.

[3] = tested on: SFO^nNOS neurons; test: Acute activation of SFO^nNOS neurons by hM3Dq-mCherry with CNO; type: in vivo, mice; details: hM3Dq-mCherry in SFO^nNOS; intraperitoneal CNO 1 mg/kg
Protocol: Long-term access assays: Optogenetic Testing—For FIGS. 1L-N and FIGS. 7L-O, satiated mice were given ad libitum access to water for 20 min with photostimulation. Photostimulation was delivered for 1-s followed by 3-s intervals throughout the behavioral sessions. For FIGS. 2J-M and FIGS. 11C-E, mice were given access to water for 20 min after 24 h water-restriction, and photostimulation was delivered for the first 10 min. For feeding assays (FIGS. 2J-M), animals were single-housed in Biodaq cages after 24 h food-restriction, and chow intake was measured for 20 min with or without light stimulation. […] The weight of the cup was measured before and after the behavior session. […] The entire session was recorded using a camera at 30 fps and ingestion episodes were manually annotated.
We measured bulk fluorescence signals using fiber photometry as previously described^[26]. […] The fluorescence signal was then focused onto a femtowatt photoreceiver (Newport, Model 2151). […] The licks from the lickometer were simultaneously recorded as real-time TTL signals to the RP2.1. Fluorescence changes were analyzed using custom MATLAB (MathWorks) code as described previously^[26]. […] The resultant ΔF/F was calculated as (raw 490 nm signal-fitted 405 nm signal)/(fitted 405 nm signal). For brief access tests, the Area Under Curve (ΣΔFduring) was quantified by integrating the fluorescence signals during the bout. […]

SMILES: C[N+]1([O-])CCN(C2=Nc3cc(Cl)ccc3Nc3ccccc32)CC1 [CNO, clozapine-N-oxide]
- water or saline intake under satiated conditions ([1]; satiated): did not elevate water or saline intake
- total water intake (30 min) ([1]; water-restricted animals): minor effect
- water consumption at the onset of drinking (first 1 min) ([1]; water-restricted animals): significantly increases water consumption at the onset of drinking
- total amount of isotonic saline intake ([1]; water-restricted, 30 min, CNO 10 mg/kg vs vehicle): strikingly increased; also recorded: causes overdrinking of isotonic saline
- duration of saline intake (time spent for drinking) ([1]; water-restricted, 30 min, CNO vs vehicle): strikingly increased
- neurons in which firing is inhibited [2]: 6/7
- water drinking [3]: induce water drinking
